According to paper PMC7156724, “Potent BRD4 inhibitor suppresses cancer cell-macrophage interaction” (Nature Communications, 2020):
“And” between values parts separate entries of the source, which are not always exact repeats. Equal entries are not always repeated.

Legend:
CSF1 mRNA = assay: RT-qPCR of CSF1 mRNA in mouse tumor cells (ID8, B16); format: cell-based; conditions: ID8, 50 nM, 48 h
[1] = test system: TAMs (CD68+ cells) in A2780 tumors; assay: Immunofluorescent staining of CD68 and Ki67 (TAMs) in subcutaneous A2780 tumors; format: in vivo, mouse; conditions: individual tumors
Source text: Shown are immunofluorescent staining of CD68 (macrophage marker, red) and E-Cadherin (cancer cells, green) (a) and quantification of CD68 positive cells (b) in vehicle, NHWD-870 treated H526 (n = 6) and A2780 (n = 5) tumors from Fig. 3a, b, respectively. Scale bar is 100 μm. […] Shown are representative immunofluorescent staining of Ki67 and CD68 (c) and quantification of percentage of Ki67+ cells in CD68+ cells (d). Scale bar is 30 μm. Data are presented as mean ± SEM of five different tumors. e Schematics of the animal experiments using an orthotopic mouse OC model, established by intraperitoneally injecting human A2780 cells into female recipient nude mice. […] Shown are representative immunofluorescent staining of Ki67 and CD68 (h) and quantification of Ki67^+CD68^− (i) or Ki67^+CD68^+ (j), or CD68^+ cells (k). […] Data are presented as mean ± SEM from five different mice. p values were calculated using two-tailed, unpaired t tests in this figure. *p < 0.05; **p < 0.01; ***p < 0.001. […]
Immunofluorescence staining of tumor sections was performed according to the manufacturer’s instructions. Slides were imaged using a Zeiss Axiovert 200 fluorescence microscope (Carl Zeiss MicroImaging; Thornwood, NY), and images were captured using Openlab3 software (Imprecision, Lexington, MA). Cleaved caspase 3, Ki67, CSF1, and CD68 positive cells were counted with ImageJ version 1.52s[58].

H526 cells = assay: Clonogenic (colony formation) assay, H526; format: cell-based, human; conditions: H526, 250 nM, 5 days
Experimental: Fig. 2 NHWD-870 inhibited BRD4 phosphorylation and c-MYC expression, and suppressed cell growth. a Representative western blot analysis of p-BRD4 (s484/488), BRD4, c-MYC, and GAPDH after treatment of MDA-MB231, SUM159, A2780 ES-2, and H526 cells with JQ-1 or NHWD-870 at the indicated concentrations for 24 h. GAPDH served as the loading control. Selected from three independent experiments. b MTT assays of H526, A2780, ES-2, and MDA-MB231 cells treated with JQ-1 or NHWD-870 at the indicated concentrations for 5 days. Data are presented as mean ± SEM from three independent experiments. c, d Clonogenic assays of H526, A2780, ES-2 and MDA-MB231 cells treated with 250 nM JQ-1 or NHWD-870 for 5 days. Shown are representative images (c) and quantification of colonies (d). […] Shown are representative images (e) and quantification of relative colony sizes (f). Scale bar, 50 μm. Data are presented as mean ± SEM from five independent experiments. p values were calculated using two-tailed, unpaired t tests in this figure. **p < 0.01; ***p < 0.001. Source data are provided as a Source Data file. […]
5. Colony formation assay. Cells were seeded in 6-well plates at 3,000 cells/well […]
every week. […] Colony numbers were calculated with imageJ version

[2] = test system: human melanoma patient-derived xenograft (PDX); assay: Human melanoma patient-derived xenograft (PDX) tumor growth; format: in vivo, NSG mice; conditions: human melanoma PDX, once daily (5 days on, 2 days off) 21 days, NHWD-870-HCl
Source text: PO, oral administration; QD, once daily; BID, twice daily. b–d Tumor growth curves for A2780 ovarian tumor (n = 5) (b), TMD8 large B cell lymphoma (n = 6) (c), and B16F10 melanoma (n = 5) (d) bearing mice treated with the indicated compounds once daily for 11-21 days. e, f Tumor growth curves for A375 melanoma (n = 6) (e), and patient-derived xenograft (PDX) of melanoma (n = 5) (f) bearing mice treated with the indicated compounds once daily (5 days on, 2 days off) for 21 days. For d–f, NHWD-870 used is NHWD-870-HCl synthesized using Suzuki coupling route. Data are presented as mean ± SEM in (a, b, d, f) and mean + SEM in (c, e). p values were calculated using two-tailed, unpaired t tests. *p < 0.05; **p < 0.01; ***p < 0.001. Source data are provided as a Source Data file.
4–6 weeks old female BALB/c nude mice were used for most experiments, with the exception of 6–8 weeks old female C57BL/6 mice were used for B16F10 experiments, and 6–8 weeks old male BALB/c nude mice and SD rats were used for pharmacokinetic experiments. All animals were purchased from Shanghai SIPPR-Bk Lab Animal Co., Ltd. All animals were housed under a regimen of 12 h light/12 h dark cycles and specific pathogen-free conditions. 5×10^6 NCI-H526, ES-2, MDA-MB231, A2780, A375, B16F10, and TMD-8 cells (0.1 ml) were injected subcutaneously into female nude mice. The melanoma patient-derived xenograft model was derived from a human melanoma sample (BRAF, NARS and NF1 wild type, and p53 mutant) removed from a patient in Xiangya Hospital. Surgically removed tumor fragments were implanted subcutaneously into female NSG mice. When the tumors grew to ~1000 mm^3, they were harvested and cryopreserved or immediately re-implanted for expansion or experiments. Mouse body weight and tumor sizes were measured every 3 days. Once the tumors grew to 150–200 mm^3, mice were treated with the compounds as described in the Figures. 1 × 10^6 A2780 cells (1 ml) were injected into the abdominal cavity of nude mice. Ascitic volume and tumor weight were measured by an electronic balance. All the procedures were evaluated and approved by the Institutional Animal Care and Use Committee of Central South University and Yale University.

Cc1nnn(C)c1-c1cnc2c3c4cnn(C)c4ccc3n([C@H](c3ccccc3)C3CCOCC3)c2c1 [NHWD-870]
relative CSF1 mRNA level (CSF1 mRNA): 0.0037 and 0.00425 and 0.0051 | quantification of CD68 positive cells ([1]; subcutaneous A2780 tumors from Fig. 3b): 0.5 and 0.3 and 0.2 and 1.2 and 2.3 | percentage of Ki67+ cells in CD68+ cells ([1]; subcutaneous A2780 tumors): 3.1 and 0 (3×) and 1.7 | Clone Number (clonogenic assay) (H526 cells): 75 and 84 and 92 and 65 and 76 | effect on tumor growth [2]: very strong tumor inhibitive effects
